One assay relates to CT2A cells. The experiment in a line: Survival of mice intracranially implanted with CT2A cells. The assay is classed as in vivo, C57BL/6 mice. The note with it: CT2A 2×10^4 cells/mouse; BAPN 2 g/L drinking water from day 4; SR9009 100 mg/kg i.p. 10 days from day 7; anti-PD1 10 mg/kg i.p. days 11, 14, 17; radiation 2.5 Gy 4 days from day 7. The method, then: (§1) Mice and Intracranial Xenograft Tumor Models. Female C57BL/6 mice at 3 to 4 weeks of age were purchased from the Jackson Laboratory (#0000664). All animals were grouped by 5 mice per cage and maintained in IVC System (San Diego, CA) for a week before the experiment. All animal experiments were performed with the approval of the Institutional Animal Care and Use Committee (IACUC) at Northwestern University. The intracranial xenograft tumor models were established previously. In brief, mice were anesthetized by isoflurane through IMPAC6 Anesthesia System. Then a dental drill was used to open a small hole in the skull of mice 1.2 mm anterior and 3.0 mm lateral to the bregma. Mice were placed into the stereotactic apparatus, and 5 μL 005 GSC, CT2A, or GL261 cells in FBS-free culture medium were injected into the right caudate nucleus 3 mm below the surface of the brain using a 10 μL Hamilton syringe with an unbeveled 30-gauge needle. The incision was closed using Vetbond glue. Meloxicam (20 mg/kg, daily) was subcutaneously injected for pain relief for 3 days after surgery. […]
(§2) Statistical analysis. […] The survival analysis for animal models was determined by conducting Log-rank (Mantel-Cox) test. […]

The subject of the next assay is 005 GSCs. The experiment in a line: Survival of mice intracranially implanted with 005 GSCs. The assay is classed as in vivo, C57BL/6 mice. The following applies: 005 GSCs 2×10^5 cells/mouse; BAPN 2 g/L drinking water from day 4; SR9009 100 mg/kg i.p. 10 days from day 7; anti-PD1 10 mg/kg i.p. days 11, 14, 17; radiation 2.5 Gy 4 days from day 7. The method, then:
as §1, §2

Another assay deals with THP-1 macrophages. The assay is described as follows: Transwell migration assay of THP-1 macrophages with U87 conditioned media. The assay is classed as cell-based. The following applies: conditioned media from U87 cells pretreated with SR9009 5 μM. The method, then: Migration assay. To study the relationship between macrophages and microglia, HMC3 microglia or THP-1 macrophages were seeded into the 24-well plates (receiver wells) using serum-containing culture medium for 24 hours to reach 40-60% confluence and then stimulated with or without U87 cell CM for additional 24 hours. After that, cells were washed with PBS twice and cultured in serum-free culture medium. For upper chambers, THP-1 macrophages (2×10^5) and HMC3 microglia (5×10^4) were suspended in serum-free culture medium and seeded into […] (Corning, #3421) and […] (Corning, #3422) 24-well Transwell inserts, respectively. To study the role of GBM cells on microglia migration, HMC3 microglia (5×10^4) were suspended in serum-free culture medium and seeded into 8.0 μm inserts. SIM-A9 microglia (1×10^5) and THP-1 macrophages (1×10^5) were suspended in serum-free culture medium and seeded into 5.0 μm inserts. The CM from LOX-depleted or inhibited U87 cells, LOX-overexpressed GL261 cells, or SR9009-treated U87 cells were added to the receiver wells, respectively. After 10 hours, migrated cells were fixed with 4% PFA (ThermoFisher, #J61899.AK) for 30 minutes and stained with crystal violet (Sigma-Aldrich, #C-3886) for another 30 minutes. The membrane inserts were washed with water and imaged under an EVOS microscope. The number of transferred cells was counted using ImageJ.

Consider two molecules from patent US20250186396A1, “COMPOSITIONS AND METHODS FOR THE TREATMENT OF GLIOBLASTOMA WITH A DUAL TARGETING ANTI-TUMOR COMPOSITION” (Northwestern University, priority 2023, published 2025).

Take `N#CCCN` [BAPN, β-aminopropionitrile]: the survival entry with CT2A cells and with 005 GSCs was “extended the survival” each time.

As for `CCOC(=O)N1CCC(CN(Cc2ccc(Cl)cc2)Cc2ccc([N+](=O)[O-])s2)C1` (stereo not drawn) [SR9009], in the assay with THP-1 macrophages, the “migration ability of THP-1 macrophages” value was “did not change”.
